# “And” between values parts separate entries of the source, which are not always exact repeats. Equal entries are not always repeated.
# Assays:
# [1] = Population PK model of plasma orteronel in patients with mCRPC; assay type: in vivo, human
# [2] = Phase 1 single-dose renal impairment study C21010, plasma PK; assay type: in vivo, human; settings: for AUC(0-inf): human, plasma, po, 200 mg, AUCinf, geometric LSM, single oral 200 mg dose; for increase in mean AUCinf compared with normal renal function: single 200 mg dose
# [3] = Phase 1 renal impairment study C21010, urine PK; assay type: in vivo, human; settings: geometric mean; for CL renal: human, urine, oral, 200 mg, CLrenal
# [4] = Plasma protein binding by rapid equilibrium dialysis in study C21010; assay type: in vitro ADME; settings: human, oral, 200 mg, mean percent unbound of orteronel in plasma, range across the renal function groups
# [5] = In vitro clearance in human hepatocytes; assay type: in vitro ADME
# [6] = In vitro clearance in human liver microsomes; assay type: in vitro ADME
# [7] = ref unpublished data, Suri, A., Pusalkar, S., Li, Y., & Prakash, S. Clin. Pharmacol. Drug Development 2015, cited from earlier work
smiles,measurement,setting,value
CNC(=O)c1ccc2cc([C@@]3(O)CCn4cncc43)ccc2c1 [orteronel],ka,"[1]; base model, mean (SD)",2.1 (0.2) h^−1
same,predicted decrease in CL/F,"[1]; final PK model, reduction in CLcr from 92 to 46 mL/min",28%
same,BILI on ka,"[1]; final model covariate effect, mean (SD)",–0.46 (0.20)
same,CL/F,"[1]; final model, mean (SD)",17.7 L/h
same,V/F,"[1]; final model, mean (SD)",261 L
same,ka,"[1]; final model, mean (SD)",2.2 (0.3) h^−1
same,slope of regression of CL/F vs CLcr,"[2]; CL/F = 10.90 + 0.101*CLcr, r2 = 0.2177",0.101
same,AUC(0-inf),[2]; mild chronic renal impairment (CLcr ≥60–89 mL/min),11300 ng·h/mL
same,AUC(0-inf),[2]; moderate chronic renal impairment (CLcr ≥30–59 mL/min),13100 ng·h/mL
same,AUC(0-inf),"[2]; normal renal function (CLcr ≥90 mL/min), fasted",9500 ng·h/mL
same,AUC(0-inf),[2]; severe chronic renal impairment (CLcr ≥15–29 mL/min),17800 ng·h/mL
same,increase in mean AUCinf compared with normal renal function,[2]; mild chronic RI,18.6% and 19%
same,increase in mean AUCinf compared with normal renal function,[2]; moderate chronic RI,38% and 38.4%
same,increase in mean AUCinf compared with normal renal function,[2]; severe chronic RI,87% and 87.1%
same,CL renal,[3]; mild chronic RI,97.8 mL/min
same,CL renal,[3]; moderate chronic RI,49.2 mL/min
same,CL renal,[3]; normal renal function,158 mL/min
same,CL renal,[3]; severe chronic RI,25.8 mL/min
same,fraction of dose excreted as unchanged orteronel (Fe),[3]; mild chronic RI,33.1%
same,fraction of dose excreted as unchanged orteronel (Fe),[3]; moderate chronic RI,19.4%
same,fraction of dose excreted as unchanged orteronel (Fe),[3]; normal renal function,44.9%
same,fraction of dose excreted as unchanged orteronel (Fe),[3]; severe chronic RI,13.8%
same,fraction unbound at 2 h,[4],0.547 to 0.589
same,in vitro clearance,[5],no appreciable in vitro clearance
same,in vitro clearance,[6],no appreciable in vitro clearance
same,share of orteronel CL characterized as renal CL,[7]; intact parent compound in urine,53%
same,share of CL characterized as other CL,"[7]; metabolites formed via hydrolysis, neither renal nor hepatic",19%
